The record followed here is patent publication US20260138962A1, “SYNTHESIS OF DERIVATIVES OF SIPH[…] THERAPEUTIC USE THEREOF” (priority 2022, published 2026).

Common to all, as to assay: microbe, parasite or virus in culture
Holding throughout (type): cell-based

One assay relates to SARS-CoV-2 Delta variant. The note with it: Severe acute respiratory syndrome coronavirus 2, Vero C1008.
For a further assay, the system named is SARS-CoV-2 Beta variant. The note with it: Severe acute respiratory syndrome coronavirus 2, Vero C1008.
Assay [1] concerns SARS-CoV-2 Wuhan isolate (wild type). The note with it: Severe acute respiratory syndrome coronavirus 2, Vero C1008; positive control at 3.77 μg/ml; […].
[2] abbreviates: positive control at 3.77 μg/ml, […].

≈ marks a conversion by molar mass, not a printed value.

For `CC1=C2C[C@@H]3[C@@H](C)C=CC(=O)[C@@]3(C)C[C@@]2(O)OC1=O` [HLS, (4aR,5S,8aS,9aR)-9a-hydroxy-3,5,8a-trimethyl-4a,5,9,9a-tetrahydronaphtho[2,3-b]furan-2,8(4H,8aH)-dione], the IC50 in the assay on SARS-CoV-2 Delta variant (Delta strain, in vitro) is 6.15 µg/mL (≈ 23.4 µM); in the assay on SARS-CoV-2 Beta variant (Beta strain, in vitro), 8.93 µg/mL (≈ 34 µM). For the same compound, the inhibition at 0.5 µg/mL is 0% in the assay on SARS-CoV-2 Delta variant (Delta, 0.5 μg/ml, Vero E6 cells) and 25% in the assay with SARS-CoV-2 Beta variant (Beta, 0.5 μg/ml, Vero E6 cells). The inhibition at 2 µg/mL with SARS-CoV-2 Delta variant (Delta, 2 μg/ml, Vero E6 cells) is 25%; in the assay on SARS-CoV-2 Beta variant (Beta, 2 μg/ml, Vero E6 cells), 25%. Also, the inhibition at 5 µg/mL with SARS-CoV-2 Delta variant (Delta, 5 μg/ml, Vero E6 cells) came to 50%; in the assay on SARS-CoV-2 Beta variant (Beta, 5 μg/ml, Vero E6 cells) it was 50%. Besides, the inhibition at 16 µg/mL with SARS-CoV-2 Delta variant (Delta, 16 μg/ml, Vero E6 cells) came out at 75%; with SARS-CoV-2 Beta variant (Beta, 16 μg/ml, Vero E6 cells) it was 75%. Further, the inhibition at 50 µg/mL in the assay on SARS-CoV-2 Delta variant (Delta, 50 μg/ml, Vero E6 cells) came to 100%; in the assay on SARS-CoV-2 Beta variant (Beta, 50 μg/ml, Vero E6 cells), 100%.
With `CCC(CC)COC(=O)[C@H](C)N[P@](=O)(OC[C@H]1O[C@@](C#N)(c2ccc3c(N)ncnn23)[C@H](O)[C@@H]1O)Oc1ccccc1` [Remdesivir, reference compound], the inhibition at 3.77 µg/mL (in the assay on SARS-CoV-2 Delta variant (setting [2]); in the assay on SARS-CoV-2 Beta variant (setting [2]); in assay [1]) was 100% each time.
